Measured values: US20240041877A1, “DOSAGE REGIME AND METHOD FOR TREATING PULMONARY ARTERIAL HYPERTENSION” (Altavant Sciences GmbH, priority 2019, published 2024)

Assay: Study KAR5585-101 Part 1 (SAD): plasma pharmacokinetics after a single oral dose of KAR5585, fasting and fed (incl. dose proportionality and food effect)
Conditions: for AUC / AUC(0-inf) / concentration at 12 h / Cmax / Vd/F / half-life / Tmax: human, plasma, po; for AUC: AUC0-tau; for AUC(0-inf): AUC0-∞; for Vd/F: Vz/F
[1] = 400 mg, 400 mg KAR5585 single oral, fasted, Cohort 3A, Mean
[2] = 400 mg, 400 mg KAR5585 single oral, fed, Cohort 3B, Geo. Mean
[3] = 400 mg, 400 mg KAR5585 single oral, fed, Cohort 3B, Mean
[4] = 400 mg, Geometric Mean, Cohort 3A (Fasting), 400 mg KAR5585 single oral dose, fasting
[5] = 400 mg, Geometric Mean, Cohort 3B (Fed), 400 mg KAR5585 single oral dose, fed
[6] = 400 mg, 400 mg KAR5585 single oral, fasted, Cohort 3A, Geo. Mean
[7] = 700 mg, 700 mg KAR5585 single oral, fasted, Cohort 4, Geo. Mean
[8] = 700 mg, 700 mg KAR5585 single oral, fasted, Cohort 4, Mean
[9] = 1200 mg, 1200 mg KAR5585 single oral, fasted, Cohort 5, Geo. Mean
[10] = 1200 mg, 1200 mg KAR5585 single oral, fasted, Cohort 5, Mean
[11] = 2000 mg, 2000 mg KAR5585 single oral, fasted, Cohort 6, Geo. Mean
[12] = 2000 mg, 2000 mg KAR5585 single oral, fasted, Cohort 6, Mean

Experimental: Food effect was to be evaluated in Part 1, Period 2. Part 2 was permitted to begin before Part 1 was completed and, in each part, the data from each dose Cohort were to be reviewed for safety before the next dose Cohort was enrolled.
Part 1 had 6 Cohorts of 12 subjects each (for a total of 72 subjects) and Part 2 had 4 Cohorts of 12 subjects each (for a total of 48 subjects). In Part 1, the 12 subjects in Cohort 3 (400 mg)were studied twice, once under fasting conditions (Period 1) and once under fed conditions (Period 2) for food-effect assessment.
Pharmacokinetic data were to be summarized descriptively.

For CCOC(=O)[C@@H]1CC2(CCN(c3cc(O[C@H](c4ccc(Cl)cc4-c4ccccc4)C(F)(F)F)nc(N)n3)CC2)CN1 [KAR5585, (S)-ethyl 8-(2-amino-6-((R)-1-(5-chloro-[1,1′-biphenyl]-2-yl)-2,2,2-trifluoroethoxy)pyrimidin-4-yl)-2,8-diazaspiro[4.5]decane-3-carboxylate], which AUC [1] is on record?
The AUC was 219 ng·h/mL.

What about the AUC [2] of the same compound?
Its AUC is 854 ng·h/mL.

What about the AUC [3] of the same compound?
The AUC was 868 ng·h/mL.

And the AUC [4]?
Its AUC is 176 ng·h/mL.

And the AUC [5]?
Its AUC is 854 ng·h/mL.

What about the AUC(0-inf) [6] of the same compound?
Its AUC(0-inf) is 288 ng·h/mL.

And the AUC(0-inf) [1]?
Its AUC(0-inf) is 302 ng·h/mL.

What about the AUC(0-inf) [2] of the same compound?
The AUC(0-inf) was 903 ng·h/mL.

What about the AUC(0-inf) [3] of the same compound?
The AUC(0-inf) was 915 ng·h/mL.

And the concentration at 12 h (400 mg, C12, 400 mg KAR5585 single oral, fasted, Cohort 3A, Geo. Mean)?
The concentration at 12 h was 7.4 ng/mL.

What about the concentration at 12 h (400 mg, C12, 400 mg KAR5585 single oral, fasted, Cohort 3A, Mean) of the same compound?
Its concentration at 12 h is 7.45 ng/mL.

And the concentration at 12 h (400 mg, C12, 400 mg KAR5585 single oral, fed, Cohort 3B, Geo. Mean)?
The concentration at 12 h was 19.7 ng/mL.

And the concentration at 12 h (400 mg, C12, 400 mg KAR5585 single oral, fed, Cohort 3B, Mean)?
The concentration at 12 h was 21 ng/mL.

What about the Cmax [6] of the same compound?
Its Cmax is 42 ng/mL.

What about the Cmax [1] of the same compound?
The Cmax was 52.8 ng/mL.

What about the Cmax [2] of the same compound?
Its Cmax is 165 ng/mL.

And the Cmax [3]?
The Cmax was 169 ng/mL.

What about the Cmax [4] of the same compound?
The Cmax was 42 ng/mL.

And the Cmax [5]?
Its Cmax is 165 ng/mL.

What about the Vd/F [6] of the same compound?
The Vd/F was 8100 L.

What about the Vd/F [1] of the same compound?
Its Vd/F is 8330 L.

What about the Vd/F [2] of the same compound?
The Vd/F was 2730 L.

What about the Vd/F [3] of the same compound?
Its Vd/F is 2780 L.

And the half-life (400 mg, t1 (t½, apparent terminal half-life), 400 mg KAR5585 single oral, fasted, Cohort 3A, Geo. Mean)?
Its half-life is 4.04 h.

What about the half-life (400 mg, t1 (t½, apparent terminal half-life), 400 mg KAR5585 single oral, fasted, Cohort 3A, Mean) of the same compound?
Its half-life is 4.08 h.

And the half-life (400 mg, t1 (t½, apparent terminal half-life), 400 mg KAR5585 single oral, fed, Cohort 3B, Geo. Mean)?
Its half-life is 4.26 h.

And the half-life (400 mg, t1 (t½, apparent terminal half-life), 400 mg KAR5585 single oral, fed, Cohort 3B, Mean)?
Its half-life is 4.45 h.

And the Tmax (400 mg, tmax, 400 mg KAR5585 single oral, fasted, Cohort 3A, Median)?
Its Tmax is 2.07 h.

And the Tmax (400 mg, tmax, 400 mg KAR5585 single oral, fed, Cohort 3B, Median)?
The Tmax was 3 h.

And the AUC [7]?
The AUC was 362 ng·h/mL.

What about the AUC [8] of the same compound?
Its AUC is 386 ng·h/mL.

And the AUC(0-inf) [7]?
Its AUC(0-inf) is 412 ng·h/mL.

And the AUC(0-inf) [8]?
The AUC(0-inf) was 436 ng·h/mL.

What about the concentration at 12 h (700 mg, C12, 700 mg KAR5585 single oral, fasted, Cohort 4, Geo. Mean) of the same compound?
The concentration at 12 h was 9.84 ng/mL.

What about the concentration at 12 h (700 mg, C12, 700 mg KAR5585 single oral, fasted, Cohort 4, Mean) of the same compound?
The concentration at 12 h was 10.7 ng/mL.

And the Cmax [7]?
The Cmax was 95.2 ng/mL.

And the Cmax [8]?
The Cmax was 99.4 ng/mL.

What about the Vd/F [7] of the same compound?
The Vd/F was 8390 L.

What about the Vd/F [8] of the same compound?
The Vd/F was 9120 L.

And the half-life (700 mg, t1 (t½, apparent terminal half-life), 700 mg KAR5585 single oral, fasted, Cohort 4, Geo. Mean)?
The half-life was 3.42 h.

What about the half-life (700 mg, t1 (t½, apparent terminal half-life), 700 mg KAR5585 single oral, fasted, Cohort 4, Mean) of the same compound?
The half-life was 3.46 h.

And the Tmax (700 mg, tmax, 700 mg KAR5585 single oral, fasted, Cohort 4, Median)?
The Tmax was 1.75 h.

What about the AUC [9] of the same compound?
Its AUC is 296 ng·h/mL.

What about the AUC [10] of the same compound?
Its AUC is 364 ng·h/mL.

What about the AUC(0-inf) [9] of the same compound?
Its AUC(0-inf) is 406 ng·h/mL.

And the AUC(0-inf) [10]?
Its AUC(0-inf) is 462 ng·h/mL.

What about the concentration at 12 h (1200 mg, C12, 1200 mg KAR5585 single oral, fasted, Cohort 5, Geo. Mean) of the same compound?
Its concentration at 12 h is 11 ng/mL.

What about the concentration at 12 h (1200 mg, C12, 1200 mg KAR5585 single oral, fasted, Cohort 5, Mean) of the same compound?
Its concentration at 12 h is 11.8 ng/mL.

And the Cmax [9]?
The Cmax was 68.1 ng/mL.

And the Cmax [10]?
The Cmax was 83 ng/mL.

What about the Vd/F [9] of the same compound?
Its Vd/F is 14500 L.

What about the Vd/F [10] of the same compound?
The Vd/F was 16900 L.

And the half-life (1200 mg, t1 (t½, apparent terminal half-life), 1200 mg KAR5585 single oral, fasted, Cohort 5, Geo. Mean)?
Its half-life is 3.4 h.

And the half-life (1200 mg, t1 (t½, apparent terminal half-life), 1200 mg KAR5585 single oral, fasted, Cohort 5, Mean)?
Its half-life is 3.58 h.

What about the Tmax (1200 mg, tmax, 1200 mg KAR5585 single oral, fasted, Cohort 5, Median) of the same compound?
Its Tmax is 2 h.

What about the AUC [11] of the same compound?
Its AUC is 638 ng·h/mL.

What about the AUC [12] of the same compound?
The AUC was 773 ng·h/mL.

What about the AUC(0-inf) [11] of the same compound?
The AUC(0-inf) was 667 ng·h/mL.

And the AUC(0-inf) [12]?
Its AUC(0-inf) is 778 ng·h/mL.

What about the concentration at 12 h (2000 mg, C12, 2000 mg KAR5585 single oral, fasted, Cohort 6, Geo. Mean) of the same compound?
The concentration at 12 h was 26.2 ng/mL.

What about the concentration at 12 h (2000 mg, C12, 2000 mg KAR5585 single oral, fasted, Cohort 6, Mean) of the same compound?
Its concentration at 12 h is 37.4 ng/mL.

And the Cmax [11]?
Its Cmax is 95.1 ng/mL.

And the Cmax [12]?
Its Cmax is 104 ng/mL.

What about the Vd/F [11] of the same compound?
Its Vd/F is 20600 L.

What about the Vd/F [12] of the same compound?
The Vd/F was 25100 L.

And the half-life (2000 mg, t1 (t½, apparent terminal half-life), 2000 mg KAR5585 single oral, fasted, Cohort 6, Geo. Mean)?
Its half-life is 4.76 h.

And the half-life (2000 mg, t1 (t½, apparent terminal half-life), 2000 mg KAR5585 single oral, fasted, Cohort 6, Mean)?
The half-life was 4.84 h.

And the Tmax (2000 mg, tmax, 2000 mg KAR5585 single oral, fasted, Cohort 6, Median)?
The Tmax was 2 h.

And the Vd/F (range across dose levels, single oral KAR5585)?
Its Vd/F is 5680 to 25100 L.

And the half-life (mean apparent elimination half-life, range across dose levels, single oral KAR5585 100-2000 mg)?
The half-life was 1.89 to 4.84 h.

What about the Tmax (median tmax, range across cohorts, single oral 100-2000 mg KAR5585, fasting cohorts) of the same compound?
Its Tmax is 1.5 to 3 h.

And the “time concentrations remained above the LLOQ” value (single 100 mg KAR5585, fasting)?
Its value is “up to 4 hours”.

And the “time concentrations remained above the LLOQ” value (single 200 mg KAR5585, fasting)?
Its value is “up to 12 hours”.

What about the “time concentrations remained above the LLOQ” value (single 700 mg KAR5585, fasting) of the same compound?
The value was “up to 12 hours”.

What about the “time concentrations remained above the LLOQ” value (single 1200 mg KAR5585, fasting) of the same compound?
The value was “up to 12 hours”.

What about the “dose proportionality of AUC0-inf and Cmax (power model, 95% CI of slope)” value (single dose range 100 to 2000 mg KAR5585, fasting) of the same compound?
Its value is “dose proportionality was not concluded”.
